These results are taken from patent publication US7396837B2, “Antitumoral analogs of lamellarins” (Pharma Mar, S.A.U., priority 2002, dated 2008).

Data set [1] relates to DU-145. Briefly: SRB colorimetric cell growth inhibition assay, DU-145. The note with it: DU-145. It counts as cell-based. The gist of the method: (§1)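 Continuous-exposure format, human tumour lines. SRB colour reaction quantifies growth/viability. Triplicate wells → mean ± SD → GI, TGI, LC.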
Data set [2] concerns LoVo. Briefly: SRB colorimetric cell growth inhibition assay, LoVo. Format: cell-based. The note with it: LOVO. The procedure, abridged:
as §1

The test system of data set [3] is A-549. Briefly: SRB colorimetric cell growth inhibition assay, A-549. It counts as cell-based. Conditions: A-549. The gist of the method:
as §1

The test system of data set [4] is IGROV-ET. Briefly: SRB colorimetric cell growth inhibition assay, IGROV-ET (ET-743 resistant). Format: cell-based. Conditions: IGROV-ET. The procedure, abridged:
as §1

For data set [5], the system named is HT-29. Briefly: SRB colorimetric cell growth inhibition assay, HT-29. Conditions: HT-29. It counts as cell-based. The procedure, abridged:
as §1

Data set [6] deals with LoVo-Dox. Briefly: SRB colorimetric cell growth inhibition assay, LoVo-Dox (MDR). Format: cell-based. The note with it: LOVO-DOX. The procedure, abridged: as §1
Data set [7] deals with K-562. Briefly: SRB colorimetric cell growth inhibition assay, K-562. It counts as cell-based. Conditions: K-562. The procedure, abridged:
as §1

Data set [8] has as its system PANC-1. Briefly: SRB colorimetric cell growth inhibition assay, PANC-1. It counts as cell-based. Conditions: PANC-1. The procedure, abridged: as §1
Data set [9] deals with LNCaP. Briefly: SRB colorimetric cell growth inhibition assay, LNCaP. The note with it: LN-caP. Format: cell-based. The procedure, abridged: as §1
For data set [10], the system named is SK-MEL-28. Briefly: SRB colorimetric cell growth inhibition assay, SK-MEL-28. It counts as cell-based. The note with it: MEL-28. The procedure, abridged:
as §1

In data set [11] the test system is IGROV. Briefly: SRB colorimetric cell growth inhibition assay, IGROV. Conditions: IGROV. Format: cell-based. The gist of the method: as §1
The test system of data set [12] is SKOV-3. Briefly: SRB colorimetric cell growth inhibition assay, SKOV-3. The note with it: SKOV-3. Format: cell-based. The procedure, abridged:
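SRB colorimetric readout of cell growth/viability in 96-well format. Means ± SD from triplicate wells; GI (growth inhibition), TGI (total growth inhibition, cytostatic) and LC (cell killing, cytotoxic) parameters derived.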

Data set [13] concerns SK-BR-3. Briefly: SRB colorimetric cell growth inhibition assay, SK-BR-3. It counts as cell-based. Conditions: SK-BR-3. The procedure, abridged: as §1
Data set [14] concerns H-MEC-1. Briefly: SRB colorimetric cell growth inhibition assay, H-MEC-1. It counts as cell-based. The note with it: H-MEC-1. From the text: Inhibition of Cell Growth by Colorimetric Assay.
A colorimetric type of assay, using sulforhodamine B (SRB) reaction has been adapted for a quantitative measurement of cell growth and viability (following the technique described by P. A. Skehan, et al., J. Natl. Cancer Inst. 1990, 82, 1107-1112).
This form of assay employs 96 well cell culture microplates of 9 mm diameter (T. Mosmann et al., J. of Immunological Methods 1983, 65, 55-63; G. T. Faircloth et al., J. of Tissue and Culture Methods 1988, 11, 201-205).
Most of the cell lines are obtained from American Type Culture Collection (ATCC) derived from different human cancer types.
The values for mean +/− SD of data from triplicate wells are calculated. Some parameters for cellular responses can be calculated: GI=growth inhibition, TGI=total growth inhibition (cytostatic effect) and LC=cell killing (cytotoxic effect).

In data set [15] the target is T1, human topoisomerase I (Homo sapiens, UniProt P11387).
T1 sequence (P11387 1-765): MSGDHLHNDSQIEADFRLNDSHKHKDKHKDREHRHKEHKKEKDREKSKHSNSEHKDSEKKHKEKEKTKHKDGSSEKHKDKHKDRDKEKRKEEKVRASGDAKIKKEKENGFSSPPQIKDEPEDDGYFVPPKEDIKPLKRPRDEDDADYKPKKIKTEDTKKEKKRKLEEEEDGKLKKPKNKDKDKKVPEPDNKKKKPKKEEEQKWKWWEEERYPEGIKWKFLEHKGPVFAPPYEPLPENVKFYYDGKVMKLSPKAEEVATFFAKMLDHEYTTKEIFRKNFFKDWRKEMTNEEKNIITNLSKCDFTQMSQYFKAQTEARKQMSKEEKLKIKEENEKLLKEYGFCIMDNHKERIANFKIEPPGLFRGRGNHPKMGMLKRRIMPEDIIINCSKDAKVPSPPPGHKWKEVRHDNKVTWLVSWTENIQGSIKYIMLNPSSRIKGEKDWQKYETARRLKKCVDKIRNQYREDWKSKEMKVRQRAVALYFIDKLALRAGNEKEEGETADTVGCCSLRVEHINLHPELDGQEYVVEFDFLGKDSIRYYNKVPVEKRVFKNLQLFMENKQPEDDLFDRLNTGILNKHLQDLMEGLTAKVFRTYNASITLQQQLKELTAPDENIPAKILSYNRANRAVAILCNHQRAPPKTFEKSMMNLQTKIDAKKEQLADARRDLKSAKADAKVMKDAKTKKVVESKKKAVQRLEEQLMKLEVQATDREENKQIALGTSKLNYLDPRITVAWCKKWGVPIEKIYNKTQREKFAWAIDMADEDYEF
Briefly: Topoisomerase I DNA relaxation assay (supercoiled plasmid DNA). The note with it: supercoiled plasmid DNA, each compound tested at 1 μM, agarose gel with ethidium bromide. Format: biochemical. The procedure: Two assays, based on DNA relaxation and DNA cleavage (Bailly, C. DNA relaxation and cleavage assays to study topoisomerase I inhibitors. Methods Enzymol. 2001, 340, 610-623) were used evaluate the effects of the lamellarin analogs on the catalytic activity of human topoisomerase I.
In the first assay, a supercoiled plasmid DNA was relaxed with topoisomerase I in the absence or presence of the test compounds, each tested at 1 μM. DNA relaxation products were then resolved by gel electrophoresis on agarose gels containing ethidium bromide to stain the DNA.

The mark [16] stands for this setting: TGI=total growth inhibition (cytostatic effect).
Setting [17] is: total growth inhibition (cytostatic effect).

Molecules are shown by their SMILES.

On to `COc1cc(-c2c3n(c4c(=O)oc5cc(OC(C)=O)c(OC)cc5c24)CCc2cc(OC)c(OC(C)=O)cc2-3)ccc1OC(C)=O` [Compound 94], for which the GI50 (usually the concentration at which growth is held to half of that of the control) in [1] (GI=growth inhibition, read-out: GI50 DU-145) came out at 13.1 µM; in data set [2] (GI=growth inhibition, read-out: GI50 LOVO) it was 5.7 µM; in [3] (GI=growth inhibition, read-out: GI50 A-549), 7.19 µM; in data set [4] (GI=growth inhibition, read-out: GI50 IGROV-ET), 1.59 µM; in data set [5] (GI=growth inhibition, read-out: GI50 HT-29), 15.5 µM; in data set [6] (GI=growth inhibition, read-out: GI50 LOVO-DOX), 2.84 µM. The GI50 came out at 0.526 µM in [7] (GI=growth inhibition, read-out: GI50 K-562); 2.12 µM in data set [8] (GI=growth inhibition, read-out: GI50 PANC-1); 0.673 µM in data set [9] (GI=growth inhibition, read-out: GI50 LN-caP); 2.45 µM in data set [10] (GI=growth inhibition, read-out: GI50 MEL-28); 1.83 µM in data set [11] (GI=growth inhibition, read-out: GI50 IGROV); 8.48 µM in data set [12] (GI=growth inhibition, read-out: GI50 SKOV-3). Besides, the GI50 turned out to be 3.35 µM in [13] (GI=growth inhibition, read-out: GI50 SK-BR-3) and 15.9 µM in [14] (GI=growth inhibition). Also, the CC50 in data set [1] (LC=cell killing (cytotoxic effect), read-out: LC50 DU-145) was determined as 15.9 µM; in data set [2] (cell killing (cytotoxic effect), read-out: LC50 LOVO), 15.9 µM; in data set [3] (cell killing (cytotoxic effect), read-out: LC50 A-549) it was 15.9 µM; in data set [4] (LC=cell killing (cytotoxic effect), read-out: LC50 IGROV-ET), 15.9 µM; in data set [5] (cell killing (cytotoxic effect), read-out: LC50 HT-29), 15.9 µM; in data set [6] (cell killing (cytotoxic effect), read-out: LC50 LOVO-DOX), 15.9 µM. Besides, the CC50 in [7] (cell killing (cytotoxic effect), read-out: LC50 K-562) came to 4.32 µM; in data set [8] (cell killing (cytotoxic effect), read-out: LC50 PANC-1) it was 15.9 µM; in [9] (LC=cell killing (cytotoxic effect), read-out: LC50 LN-caP), 12.5 µM; in data set [10] (LC=cell killing (cytotoxic effect), read-out: LC50 MEL-28), 15.9 µM; in data set [11] (LC=cell killing (cytotoxic effect), read-out: LC50 IGROV), 15.9 µM; in [12] (LC=cell killing (cytotoxic effect), read-out: LC50 SKOV-3), 15.9 µM. Further, the CC50 was determined as 15.9 µM in data set [13] (LC=cell killing (cytotoxic effect), read-out: LC50 SK-BR-3) and 15.9 µM in [14] (LC=cell killing (cytotoxic effect), read-out: LC50 H-MEC-1). The “TGI DU-145” value in data set [1] (setting [16]) is given as 1.59E−05 Molar. In addition, the “TGI LOVO” value in data set [2] (setting [17]) is listed as 1.59E−05 Molar. Moreover, the “TGI A-549” value in data set [3] (setting [17]) came out at 1.59E−05 Molar. Also, the “TGI IGROV-ET” value in data set [4] (setting [16]) stood at 1.59E−05 Molar. Also, in [5] (setting [17]), the “TGI HT-29” value is recorded as 1.59E−05 Molar. For the same compound, the “TGI LOVO-DOX” value in [6] (setting [17]) was found to be 8.25E−06 Molar. Besides, the “TGI K-562” value in data set [7] (setting [17]) came to 1.82E−06 Molar. Further, the “TGI PANC-1” value in data set [8] (setting [17]) amounted to 1.59E−05 Molar. The “TGI LN-caP” value in data set [9] (setting [16]) is 2.87E−06 Molar. For the same compound, the “TGI MEL-28” value in data set [10] (setting [16]) is recorded as 7.31E−06 Molar. Further, in data set [11] (setting [16]), the “TGI IGROV” value is listed as 5.90E−06 Molar. Further, in [12] (setting [16]), the “TGI SKOV-3” value was found to be 1.59E−05 Molar. Besides, the “TGI SK-BR-3” value in data set [13] (setting [16]) is 1.24E−05 Molar. Further, the “TGI H-MEC-1” value in [14] (setting [16]) stood at 1.59E−05 Molar.
For `COc1cc(-c2c3c4cc(OC)c(OC(=O)[C@H](NC(=O)OC(C)(C)C)C(C)C)cc4oc(=O)c3n3ccc4cc(OC(=O)[C@H](NC(=O)OC(C)(C)C)C(C)C)c(OC)cc4c23)ccc1OC(=O)[C@H](NC(=O)OC(C)(C)C)C(C)C` [Compound 122], the “stimulation of DNA cleavage by topoisomerase I / inhibition of topoisomerase I (nicked DNA band) in DNA relaxation assay” value in data set [15] was “No effect”.
Same read-out and setting: next, `COc1cc(-c2c3n(c4c(=O)oc5cc(OC(=O)c6cc(F)c(F)c(F)c6F)c(OC)cc5c24)CCc2cc(OC(=O)c4cc(F)c(F)c(F)c4F)c(OC)cc2-3)ccc1OC(=O)c1cc(F)c(F)c(F)c1F` [Compound 139]: “inactive”; `COc1cc(-c2c3n(c4c(=O)oc5cc(OC(=O)[C@@H](NC(=O)OC(C)(C)C)C(C)C)c(OC)cc5c24)CCc2cc(OC(=O)[C@@H](NC(=O)OC(C)(C)C)C(C)C)c(OC)cc2-3)ccc1OC(=O)[C@@H](NC(=O)OC(C)(C)C)C(C)C` [Compound 144]: “No effect”; `COc1cc(-c2c3n(c4c(=O)oc5cc(OC(C)=O)c(OC)cc5c24)CCc2cc(OC(C)=O)c(OC)cc2-3)ccc1OC(C)=O` [Compound 108]: “inactive”.
